Reference: US10729710B2, “Catecholamine prodrugs for use in the treatment of Parkinson's disease” (H. Lundbeck A/S, priority 2017, dated 2020)
Where a name gives a salt, the structure may show the parent alone.

Assays:
human D2 receptor = human D2 receptor (Homo sapiens (Human), UniProt P14416); assay: Dopamine D2 receptor agonism, calcium mobilization assay; format: cell-based; conditions: for Emax: normalized to 1 μM dopamine = 100%
Description: Dopamine D2 receptor agonism was measured using a calcium mobilization assay protocol developed by HD Biosciences (China). Briefly, HEK293/G15 cells expressing human D2 receptor were plated at a density of 15000 cells/well in clear-bottomed, Matrigel-coated 384-well plates and grown for 24 hrs at 37° C. in the presence of 5% CO2. The cells were incubated with calcium-sensitive fluorescent dye, Fluo8, for 60-90 minutes at 37° C. in the dark. Test compounds were prepared at 3-fold concentrated solution in 1×HBSS buffer with Ca^2+ and Mg^2+. Calcium Flux signal was immediately recorded after compounds were added from compound plate to cell plate at FLIPR (Molecular Devices). The fluorescence data were normalized to yield responses for no stimulation (buffer) and full stimulation (1 μM of dopamine) of 0% and 100% stimulation, respectively. Test compound potency (EC50) was estimated by nonlinear regression using the sigmoidal dose-response (variable slope) using Xlfit 4 (IDBS, Guildford, Surrey, UK, model 205). y=(A+((B−A)/(1+((C/x)^D)))) where y is the normalized ratio measurement for a given concentration of test compound, x is the concentration of test compound, A is the estimated efficacy at infinite compound dilution, and B is the maximal efficacy. C is the EC50 value and D is the Hill slope coefficient. EC50 estimates were obtained from independent experiment and the logarithmic average was calculated.

hepatocytes from rat = assay: Conversion to compound (I) in rat hepatocytes; format: in vitro ADME; conditions: 1 μg/mL, 37° C., 0.25-60 minutes, FIG. 7a
Description: (§1) The cell concentration at incubation was 1×10^6 viable cells/mL. The incubations were performed in glass tubes at 37° C. with a total incubation volume of 3.5 mL and with duplicate incubations for each test item. The 3.5 mL of hepatocyte suspension was equilibrated for 10 minutes in a water bath set to 37° C. where after the incubations were initiated by adding 3.5 μL of a stock solution of the test item in DMSO (Dimethyl sulfoxide) and gently inverting the tubes. The final solvent concentration in the incubations was 0.1% DMSO. Samples of 600 μL were withdrawn from the incubations at the pre-determined time points of 0.25, 5, 15, 30 and 60 minutes after ensuring homogeneity of hepatocyte suspensions. The withdrawn volume was added to 1 mL Nunc cryo tubes on wet ice containing 60 μL of ice cold ascorbic acid (100 mg/mL) and 30 μL of ice cold 100 mM saccharic acid 1.4-lactone in 0.5 M citric acid. The tubes were mixed and 35 μL of a solution of ice cold 20% formic acid was added. The tubes were mixed thoroughly and stored at −80° C. awaiting analysis. Analysis method and Instrumentation used for analysis of (I) from dosing (Id-ia), (Id-ib), (Id-iia) and (Id-iib), were the one described in Examples 4 and 5 below in the section “Instrumentation used for analysis of compound (I) from dosing of compounds (Ic), (Id-ia), (Id-ib), (Id-iia), (Id-iib), (Id-iab) and (Id-iiab).”
(§2) Analysis method and Instrumentation used for analysis of (I) from dosing (Id-iab) and (Id-iiab) consisted of mixing equal aliquots of the samples and precipitation solution (acetonitrile (MeCN) with 10% methanol (MeOH) and 1% formic acid), followed by centrifugation at 4° C. at 16000 g for 10 minutes. Supernatants were collected and analysed by LC-MS/MS. Mass spectrometer: Waters Acquity—Waters Xevo TQ-MS. Analytical column: Acquity UPLC HSS T3, 100×2.1 mm, 1.8 μm. Mobile phase A: 0.2% formic acid in water. Mobile phase B: 0.2% formic acid in acetonitrile. Gradient run from 95/5% to 60/40 in 5 min. Flow rate 0.3 mL/min. MRM monitoring of (I) in the study samples and in the analytical standards.

hepatocytes from human = assay: Conversion to compound (I) in human hepatocytes; format: in vitro ADME; conditions: 1 μg/mL, 37° C., 0.25-60 minutes, FIG. 7b
Description: as §1, §2

male CD rats = assay: Rat locomotor activity (hyperactivity) assay, open field; format: in vivo
Description: In total, 206 male CD rats (Charles River, Germany) weighing 200-250 grams (165-190 grams upon arrival) were used in the study. Animals were housed at a standard temperature (22±1° C.) and in a light-controlled environment (lights on from 7 am to […]) with ad libitum access to food and water. The experiment described below was performed in accordance with the standard operating procedures of Charles River Discovery Research Services Finland Ltd. and in accordance with the national Animal Experiment Board of Finland (Eläinkoelautakunta, ELLA) authority on animal testing.
The test device is a square Plexiglass-arena (measuring 40×40×40 cm), in which the movement paths of the rats are recorded by an activity monitor (Med. Associates Inc.). Before the test period is initiated, rats are habituated to their test cage for 60 minutes. Upon completion of habituation, animals were treated with either compound or vehicle and placed back into the open field apparatus. The main test parameter measured is ambulatory distance (recorded in 5 minute segments). Overall time of measurement after receiving initial treatment was 360 minutes. Total follow up period in the study was 420 min, including 60 min of habituation.

human D2 receptor, sequence (P14416 whole entry): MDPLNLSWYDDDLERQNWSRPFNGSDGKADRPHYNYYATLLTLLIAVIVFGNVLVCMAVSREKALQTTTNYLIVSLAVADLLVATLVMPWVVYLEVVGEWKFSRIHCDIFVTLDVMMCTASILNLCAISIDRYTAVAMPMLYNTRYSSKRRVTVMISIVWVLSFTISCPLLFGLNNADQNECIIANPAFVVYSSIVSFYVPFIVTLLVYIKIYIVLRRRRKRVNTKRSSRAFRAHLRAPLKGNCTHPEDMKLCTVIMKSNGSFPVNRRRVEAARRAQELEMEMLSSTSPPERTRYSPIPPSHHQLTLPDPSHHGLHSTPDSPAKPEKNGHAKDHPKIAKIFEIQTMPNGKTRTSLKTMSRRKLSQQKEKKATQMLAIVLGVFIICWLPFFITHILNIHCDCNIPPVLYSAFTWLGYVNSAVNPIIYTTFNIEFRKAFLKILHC

For `CCCN1CCC[C@@H]2Cc3c(ccc(O)c3OS(=O)(=O)O)C[C@H]21` [(Id-iia), (4aR,10aR)-7-hydroxy-1-propyl-1,2,3,4,4a,5,10,10a-octahydrobenzo[g]quinolin-6-yl hydrogen sulfate], the EC50 (human D2 receptor; HEK293/G15 cells expressing human D2 receptor, calcium flux) was > 30 µM, the Emax (human D2 receptor) was 48% and the “conversion to compound (I) in rat hepatocytes” value (hepatocytes from rat) was “time dependent conversion to compound (I)”. For the same compound, the “conversion to compound (I) in human hepatocytes” value (hepatocytes from human) was “time dependent conversion to compound (I)”.

For `CCCN1CCC[C@@H]2Cc3c(ccc(O)c3O[C@@H]3O[C@H](C(=O)O)[C@@H](O)[C@H](O)[C@H]3O)C[C@H]21` [(Id-ia), (2S,3S,4S,5R,6S)-3,4,5-trihydroxy-6-(((4aR,10aR)-7-hydroxy-1-propyl-1,2,3,4,4a,5,10,10a-octahydrobenzo[g]quinolin-6-yl)oxy)tetrahydro-2H-pyran-2-carboxylic acid], the Emax (human D2 receptor) was 92%, the “relationship between behavioral effect and plasma concentrations” value (male CD rats; (Id-ia) 100 μg/kg p.o. (FIG. 5), apomorphine 3 mg/kg s.c. (FIG. 6)) was “correlate with the plasma concentrations of compound (I)” and the “start of locomotor activity effect post-administration” value (male CD rats; (Id-ia) 10 to 300 μg/kg p.o., apomorphine 3 mg/kg s.c., pramipexole 0.3 mg/kg s.c.) was ~2 h. The “total distance travelled vs vehicle” value (male CD rats; FIG. 4, (Id-ia) p.o., apomorphine 3 mg/kg s.c., pramipexole 0.3 mg/kg s.c.) was “significantly increased activity”, the “time until locomotor effect is gone” value (male CD rats; apomorphine: post administration, pramipexole: after appearance of effect, (Id-ia): recording ended at 415-minute time point) was “lasting until the end of recording” and the “conversion to compound (I) in rat hepatocytes” value (hepatocytes from rat) was “time dependent conversion to compound (I)”. For the same compound, the “conversion to compound (I) in human hepatocytes” value (hepatocytes from human) was “time dependent conversion to compound (I)”.
